Results reported in publication PMC8262356, “SLC26A6-selective inhibitor identified in a small-molecule screen blocks fluid absorption in small intestine” (JCI Insight, 2021).

Tests used:
Solubility = assay type: physicochemical
slc26a3 = target: T1, slc26a3 (Mus musculus, UniProt Q9WVC8); test: Selectivity: Cl-/I- exchange in FRT cells coexpressing YFP and slc26a3; assay type: cell-based; details: 25 μM
T1 construct: expressed in transfected cells; host or cells: FRT cells coexpressing YFP
T1 sequence (Q9WVC8 1-757): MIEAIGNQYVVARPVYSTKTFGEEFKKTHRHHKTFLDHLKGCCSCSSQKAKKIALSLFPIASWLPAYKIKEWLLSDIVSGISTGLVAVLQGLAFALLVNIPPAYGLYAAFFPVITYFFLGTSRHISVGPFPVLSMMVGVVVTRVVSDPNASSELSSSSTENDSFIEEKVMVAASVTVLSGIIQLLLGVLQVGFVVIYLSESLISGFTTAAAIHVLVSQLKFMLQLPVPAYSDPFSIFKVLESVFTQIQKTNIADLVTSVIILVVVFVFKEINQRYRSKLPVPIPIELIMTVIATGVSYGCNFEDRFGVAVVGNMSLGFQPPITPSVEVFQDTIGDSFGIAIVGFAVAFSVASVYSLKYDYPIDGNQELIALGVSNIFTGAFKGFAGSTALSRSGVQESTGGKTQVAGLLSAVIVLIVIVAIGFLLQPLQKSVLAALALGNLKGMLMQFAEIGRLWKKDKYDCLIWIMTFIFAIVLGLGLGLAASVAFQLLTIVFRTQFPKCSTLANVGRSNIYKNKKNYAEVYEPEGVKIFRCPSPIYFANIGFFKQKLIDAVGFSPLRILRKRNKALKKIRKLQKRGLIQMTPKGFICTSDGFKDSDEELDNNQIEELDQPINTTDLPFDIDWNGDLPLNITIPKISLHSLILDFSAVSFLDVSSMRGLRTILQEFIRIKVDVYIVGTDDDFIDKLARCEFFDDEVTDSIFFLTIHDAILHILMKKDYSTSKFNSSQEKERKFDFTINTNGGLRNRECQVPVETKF
Protocol: PAT1inh-B01 selectivity was studied by testing its effects on related SLC26A family anion transporters and the Cl^– channel TMEM16A. These measurements used a similar Cl^–/I^– exchange protocol, but FRT cells separately expressed each of the SLC26A family members or TMEM16A. […] PAT1inh-B01 selectivity was also tested by short-circuit current (Isc) in well-differentiated human bronchial epithelial (HBE) cells, which have a complex ion transport mechanism that includes cystic fibrosis transmembrane conductance regulator (CFTR), epithelial Na^+ channel (ENaC), and Ca^+2-activated chloride channels (CaCCs) ([13]). […] Potential PAT1inh-B01 cytotoxicity was studied in FRT cells.
Figure 3 PAT1inh-B01 selectivity and cytotoxicity. […] Cl^–/I^– exchange or I^– influx measured in FRT cells coexpressing YFP and SLC26A isoforms or TMEM16A, with data shown for 25 μM PAT1inh-B01, DMSO vehicle control, and 500 μM niflumic acid (positive control for SLC26A transporters) or 10 μM TMinh-23 (positive control for TMEM16A). […] (C) (left) Short-circuit current (Isc) in well-differentiated HBE cells measured in the absence (top) and presence (bottom) of 25 μM PAT1inh-B01. […]
YFP-based cellular assays of slc26a3, slc26a4, SLC26A9, and TMEM16A function were performed as described previously ([7]). […] The activities of ENaC, CFTR, and CaCC were determined using well-differentiated HBE cells as described previously ([13]). […]

Cc1c(Br)c(C(F)(F)F)nn1CC(=O)N1CCc2nc3cc(-c4ccccc4)[nH]n3c(=O)c2C1 [PAT1inh-B01]
solubility (Solubility): favorable
inhibition of slc26a3 (slc26a3): did not significantly inhibit
